From patent US12655116B2, “Substituted isophthalic acid diamides” (Bayer Aktiengesellschaft, priority 2020, dated 2026)

Tests used:
[1] = tested on: ALOMY; assay: Pre-emergence herbicidal action against ALOMY; assay type: in vivo, Alopecurus myosuroides; conditions: 80 g/ha, pre-emergence, scored visually after 3 weeks vs untreated controls (100% = plants have died, 0% = like control plants)
Outline: (§1)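 Sandy loam pots, seeds covered with soil, then surface-treated with WP or EC formulations at 600–800 l/ha water plus 0.2% wetting agent. Greenhouse, 3 weeks. Percent damage vs untreated controls.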

[2] = tested on: SETVI; assay: Pre-emergence herbicidal action against SETVI; assay type: in vivo, Setaria viridis
Outline: as §1

[3] = tested on: POLCO; assay: Pre-emergence herbicidal action against POLCO; assay type: in vivo, Polygonum convolvulus; conditions: dosage 80 g/ha
Source text: Seeds of monocotyledonous and dicotyledonous weed plants and crop plants are laid out in sandy loam soil in wood-fiber pots and covered with soil. The compounds of the invention, formulated in the form of wettable powders (WP) or as emulsion concentrates (EC), are then applied to the surface of the covering soil in the form of an aqueous suspension or emulsion at a water application rate equivalent to 600 to 800 l/ha, with addition of 0.2% wetting agent. After the treatment, the pots are placed in a greenhouse and kept under good growth conditions for the trial plants. The damage to the test plants is scored visually after a test period of 3 weeks by comparison with untreated controls (herbicidal activity in percent (%): 100% activity=the plants have died, 0% activity=like control plants). […] The tables below illustrate, in an illustrative manner, the post-emergence herbicidal action of the compounds of the invention, the herbicidal activity being stated in percent.

[4] = tested on: PHBPU; assay: Pre-emergence herbicidal action against PHBPU; assay type: in vivo, Pharbitis purpurea; conditions: dosage 80 g/ha
Outline: as §1

[5] = tested on: ECHCG; assay: Pre-emergence herbicidal action against ECHCG; assay type: in vivo, Echinochloa crus-galli; conditions: 80 g/ha
Outline: as §1

[6] = tested on: AMARE; assay: Post-emergence herbicidal action against AMARE; assay type: in vivo, Amaranthus retroflexus; conditions: 20 g/ha, visual assessment about 3 weeks after treatment, 100% = plants have died, 0% = like control plants
Outline: (§2)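 Visual % rating (0% = as untreated, 100% = dead) ~3 wk after spraying one-leaf-stage plants grown in sandy loam; WP/EC in water at 600–800 l/ha, 0.2% wetting agent.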

[7] = tested on: VIOTR; assay: Pre-emergence herbicidal action against VIOTR; assay type: in vivo, Viola tricolor
Outline: as §1

[8] = tested on: ECHCG; assay: Post-emergence herbicidal action against ECHCG; assay type: in vivo, Echinochloa crus-galli
Outline: as §2

[9] = tested on: ABUTH; assay: Pre-emergence herbicidal action against ABUTH; assay type: in vivo, Abutilon theophrasti
Outline: as §1

[10] = tested on: ABUTH; assay: Post-emergence herbicidal action against ABUTH; assay type: in vivo, Abutilon theophrasti; conditions: visual assessment about 3 weeks after treatment vs untreated controls
Outline: as §2

[11] = tested on: DIGSA; assay: Pre-emergence herbicidal action against DIGSA; assay type: in vivo, Digitaria sanguinalis
Outline: as §1

[12] = tested on: AMARE; assay: Pre-emergence herbicidal action against AMARE; assay type: in vivo, Amaranthus retroflexus
Outline: as §1

[13] = tested on: MATIN; assay: Pre-emergence herbicidal action against MATIN; assay type: in vivo, Matricaria inodora
Outline: as §1

[14] = tested on: VIOTR; assay: Post-emergence herbicidal action against VIOTR; assay type: in vivo, Viola tricolor
Outline: as §2

[15] = tested on: AVEFA; assay: Pre-emergence herbicidal action against AVEFA; assay type: in vivo, Avena fatua; conditions: Avena fatua, 504 h, pre-emergence
Outline: as §1

[16] = tested on: MATIN; assay: Post-emergence herbicidal action against MATIN; assay type: in vivo, Matricaria inodora; conditions: Tripleurospermum inodorum, 504 h
Outline: as §2

[17] = tested on: VERPE; assay: Post-emergence herbicidal action against VERPE; assay type: in vivo, Veronica persica; conditions: Veronica persica, 504 h
Outline: as §2

[18] = tested on: SETVI; assay: Post-emergence herbicidal action against SETVI; assay type: in vivo, Setaria viridis; conditions: Setaria viridis, 504 h
Outline: as §2

[19] = tested on: PHBPU; assay: Post-emergence herbicidal action against PHBPU; assay type: in vivo, Pharbitis purpurea; conditions: Ipomoea purpurea, 504 h
Outline: as §2

[20] = tested on: ALOMY; assay: Post-emergence herbicidal action against ALOMY; assay type: in vivo, Alopecurus myosuroides; conditions: Alopecurus myosuroides, 504 h, visual assessment about 3 weeks after treatment vs untreated controls
Outline: as §2

[21] = tested on: VERPE; assay: Pre-emergence herbicidal action against VERPE; assay type: in vivo, Veronica persica; conditions: Veronica persica, 504 h, dosage 80 g/ha
Outline: as §1

[22] = 80 g/ha, scored visually after 3 weeks vs untreated controls (100% = plants have died, 0% = like control plants)

Compound: Cn1nnnc1NC(=O)c1ccc(C(F)(F)F)c(C(=O)NC2CCC2)c1Cl [Example 1-146]
- Pre-emergence action against ALOMY (herbicidal activity) [1]: 90%
- Pre-emergence action against SETVI in % ([2]; dosage 80 g/ha): 80%
- Pre-emergence action against POLCO in % [3]: 80%
- Pre-emergence action against PHBPU in % [4]: 80%
- Pre-emergence action against ECHCG in % [5]: 100%
- Post-emergence action at 20 g/ha against AMARE in % [6]: 100%
- Pre-emergence action against VIOTR in % ([7]; dosage 80 g/ha): 100%
- Post-emergence action against ECHCG in % ([8]; dosage 20 g/ha): 80%
- Pre-emergence action against ABUTH (herbicidal activity) [9, 22]: 100%
- Pre-emergence action against ABUTH (herbicidal activity in percent) ([9]; dosage 20 g/ha, scored visually after 3 weeks vs untreated controls, 100% = plants have died, 0% = like control plants): 100%
- Post-emergence action against ABUTH in % ([10]; dosage 20 g/ha): 80%
- Pre-emergence action against DIGSA in % ([11]; dosage 20 g/ha): 100%
- Pre-emergence action against DIGSA in % ([11]; dosage 80 g/ha): 100%
- Pre-emergence action against AMARE in % ([12]; 20 g/ha, scored visually after 3 weeks vs untreated controls, 100% = plants have died, 0% = like control plants): 100%
- Pre-emergence action against AMARE in % [12, 22]: 100%
- Pre-emergence action against MATIN in % ([13]; dosage 20 g/ha): 100%
- Pre-emergence action against MATIN in % ([13]; dosage 80 g/ha): 100%
- Post-emergence action against VIOTR in % ([14]; 5 g/ha): 80%
- Post-emergence action against VIOTR in % ([14]; 20 g/ha): 100%

Compound: Cc1c(C(=O)Nc2nnnn2C)ccc(C(F)F)c1C(=O)NC(C)C [Example 1-346]
- pest or weed control at 80 g/ha ([15]; 80 g/ha): 80%
- pest or weed control at 20 g/ha ([15]; 20 g/ha, scored visually after 3 weeks, 100% = plants have died, 0% = like control plants): 80%
- pest or weed control at 5 g/ha ([16]; dosage 5 g/ha): 80%
- pest or weed control at 20 g/ha ([16]; dosage 20 g/ha): 90%
- pest or weed control at 80 g/ha ([1]; Alopecurus myosuroides, 504 h): 90%
- pest or weed control at 20 g/ha ([2]; Setaria viridis, 504 h, dosage 20 g/ha): 100%
- pest or weed control at 80 g/ha ([2]; Setaria viridis, 504 h, dosage 80 g/ha): 100%
- pest or weed control at 5 g/ha ([17]; 5 g/ha): 80%
- pest or weed control at 20 g/ha ([17]; 20 g/ha): 80%
- pest or weed control at 80 g/ha ([3]; Fallopia convolvulus, 504 h): 80%
- pest or weed control at 80 g/ha ([5]; Echinochloa crus-galli, 504 h): 90%
- pest or weed control at 20 g/ha ([6]; Amaranthus retroflexus, 504 h): 100%
- pest or weed control at 20 g/ha ([7]; Viola tricolor, 504 h, dosage 20 g/ha): 80%
- pest or weed control at 80 g/ha ([7]; Viola tricolor, 504 h, dosage 80 g/ha): 100%
- pest or weed control at 5 g/ha ([8]; Echinochloa crus-galli, 504 h, dosage 5 g/ha): 80%
- pest or weed control at 20 g/ha ([8]; Echinochloa crus-galli, 504 h, dosage 20 g/ha): 90%
- pest or weed control at 80 g/ha ([9]; Abutilon theophrasti, 504 h, 80 g/ha, scored visually after 3 weeks vs untreated controls (100% = plants have died, 0% = like control plants)): 100%
- pest or weed control at 20 g/ha ([9]; Abutilon theophrasti, 504 h, dosage 20 g/ha, scored visually after 3 weeks vs untreated controls, 100% = plants have died, 0% = like control plants, read-out: Pre-emergence action against ABUTH (herbicidal activity in percent)): 90%
- pest or weed control at 5 g/ha ([10]; Abutilon theophrasti, 504 h, dosage 5 g/ha): 80%
- pest or weed control at 20 g/ha ([10]; Abutilon theophrasti, 504 h, dosage 20 g/ha): 100%
- pest or weed control at 5 g/ha ([18]; dosage 5 g/ha): 100%
- pest or weed control at 20 g/ha ([18]; dosage 20 g/ha): 100%
- pest or weed control at 5 g/ha ([19]; dosage 5 g/ha): 80%
- pest or weed control at 20 g/ha ([19]; dosage 20 g/ha): 90%
- pest or weed control at 5 g/ha ([20]; dosage 5 g/ha): 80%
- pest or weed control at 20 g/ha ([20]; dosage 20 g/ha): 90%
- pest or weed control at 20 g/ha ([12]; Amaranthus retroflexus, 504 h, 20 g/ha, scored visually after 3 weeks vs untreated controls, 100% = plants have died, 0% = like control plants): 100%
- pest or weed control at 80 g/ha ([12]; Amaranthus retroflexus, 504 h, 80 g/ha, scored visually after 3 weeks vs untreated controls, 100% = plants have died, 0% = like control plants): 100%
- pest or weed control at 20 g/ha ([13]; Tripleurospermum inodorum, 504 h, dosage 20 g/ha): 90%
- pest or weed control at 80 g/ha ([13]; Tripleurospermum inodorum, 504 h, dosage 80 g/ha): 100%
- pest or weed control at 5 g/ha ([14]; Viola tricolor, 504 h, 5 g/ha): 90%
- pest or weed control at 20 g/ha ([14]; Viola tricolor, 504 h, 20 g/ha): 100%
- pest or weed control at 80 g/ha [21]: 80%
